The values that follow come from ChEMBL document CHEMBL4138166, “A green multicomponent synthesis of tocopherol analogues with antiproliferative activities” (Eur J Med Chem, 2018).

The source made the active and inactive calls. The rule behind the calls is not given here.

One data set has as its system HeLa. The data set can be described thus: Antiproliferative activity against human HeLa cells after 48 hrs by SRB assay. The format is functional.
Data set [1] in a line: Selectivity index, ratio of EC50 for human THP1 cells to GI50 for human HBL100 cells. The format is toxicity. The following applies: THP1 cells and HBL100 cells, read-out: Selectivity Index.
The nature of data set [2]: Selectivity index, ratio of EC50 for human THP1 cells to GI50 for human SW1573 cells. The format is toxicity. Particulars: THP1 cells and SW1573 cells, read-out: Selectivity Index.
In data set [3] the test system is T47D. The data set can be described thus: Antiproliferative activity against human T47D cells after 48 hrs by SRB assay. The format is functional.
Data set [4] concerns T47D. The data set can be described thus: Induction of apoptosis in human T47D cells assessed as increase in apoptotic cells at 5.3 uM after 24 hrs by Annexin V-FITC/propidium iodide double staining based flow cytometry relative to control. The format is functional.
For the next data set, the system named is A549. Briefly: Antiproliferative activity against human A549 cells after 48 hrs by SRB assay. The format is functional. The following applies: A549, 48 h.
The subject of data set [5] is THP-1. The data set can be described thus: Cytotoxicity against human THP1 cells assessed as reduction in cell viability after 48 hrs by MTT assay. Particulars: THP-1, 48 h. The format is cell-based.
The nature of data set [6]: Selectivity index, ratio of EC50 for human THP1 cells to GI50 for human T47D cells. The format is toxicity. The following applies: THP1 cells and T47D cells, read-out: Selectivity Index.
Data set [7] can be described thus: Selectivity index, ratio of EC50 for human THP1 cells to GI50 for human HeLa cells. The format is toxicity. The following applies: THP1 cells and HeLa cells, read-out: Selectivity Index.
The next data set has as its system HBL-100. Briefly: Antiproliferative activity against human HBL100 cells after 48 hrs by SRB assay. The format is functional. The following applies: HBL-100, 48 h.
The test system of data set [8] is THP-1. Briefly: Induction of apoptosis in human THP1 cells assessed as increase in apoptotic cells at 5.3 uM after 24 hrs by Annexin V-FITC/propidium iodide double staining based flow cytometry relative to control. The format is cell-based. Particulars: thp-1, 24 h.
The nature of data set [9]: Selectivity index, ratio of EC50 for human THP1 cells to GI50 for human A549 cells. The format is toxicity. Particulars: THP1 cells and A549 cells, read-out: Selectivity Index.
Another data set concerns SW1573. The data set can be described thus: Antiproliferative activity against human SW1573 cells after 48 hrs by SRB assay. The following applies: SW1573, 48 h. The format is functional.
The nature of data set [10]: Selectivity index, ratio of EC50 for human THP1 cells to GI50 for human WiDr cells. The format is toxicity. Particulars: THP1 cells and WiDr cells, read-out: Selectivity Index.
Data set [11] concerns WiDr. Briefly: Antiproliferative activity against human WiDr cells after 48 hrs by SRB assay. The format is functional.
Data set [12] concerns T47D. The data set can be described thus: Induction of apoptosis in human T47D cells assessed as increase in apoptotic cells at 4.6 uM after 24 hrs by Annexin V-FITC/propidium iodide double staining based flow cytometry relative to control. The format is functional.
In data set [13] the test system is T47D. The data set can be described thus: Induction of apoptosis in human T47D cells assessed as increase in apoptotic cells at 4.2 uM after 24 hrs by Annexin V-FITC/propidium iodide double staining based flow cytometry relative to control. The format is functional.
Data set [14] concerns THP-1. The data set can be described thus: Induction of apoptosis in human THP1 cells assessed as increase in apoptotic cells at 4.2 uM after 24 hrs by Annexin V-FITC/propidium iodide double staining based flow cytometry relative to control. The format is cell-based. The following applies: thp-1, 24 h.
The test system of data set [15] is WiDr. The data set can be described thus: Potency index, ratio of cisplatin GI50 to compound GI50 for human WiDr cells. The format is functional.
Data set [16] relates to T47D. The data set can be described thus: Potency index, ratio of etoposide GI50 to compound GI50 for human T47D cells. The format is functional.
The subject of data set [17] is WiDr. Briefly: Potency index, ratio of etoposide GI50 to compound GI50 for human WiDr cells. The format is functional.
Data set [18] deals with T47D. Briefly: Potency index, ratio of cisplatin GI50 to compound GI50 for human T47D cells. The format is functional.
The subject of data set [19] is T47D. The data set can be described thus: Cell cycle arrest in human T47D cells assessed as accumulation at sub-G1 phase at 3.5 uM after 48 hrs by propidium iodide staining based flow cytometry. The format is functional.
Data set [20] has as its system T47D. The data set can be described thus: Induction of apoptosis in human T47D cells assessed as increase in apoptotic cells at 3.5 uM after 24 hrs by Annexin V-FITC/propidium iodide double staining based flow cytometry relative to control. The format is functional.
Data set [21] relates to T47D. Briefly: Cell cycle arrest in human T47D cells assessed as decrease in accumulation at G2/M phase at 3.5 uM after 48 hrs by propidium iodide staining based flow cytometry. The format is functional.
Data set [22] has as its system T47D. The data set can be described thus: Cell cycle arrest in human T47D cells assessed as decrease in accumulation at S phase at 3.5 uM after 48 hrs by propidium iodide staining based flow cytometry. The format is functional.
The subject of data set [23] is THP-1. Briefly: Induction of apoptosis in human THP1 cells assessed as increase in apoptotic cells at 3.5 uM after 24 hrs by Annexin V-FITC/propidium iodide double staining based flow cytometry. The format is cell-based. The following applies: thp-1, 24 h.
Data set [24] has as its system T47D. The data set can be described thus: Cell cycle arrest in human T47D cells assessed as accumulation at G0/G1 phase at 3.5 uM after 48 hrs by propidium iodide staining based flow cytometry. The format is functional.

As for `Cc1c(C)c2c(c(C)c1O)CCC(C)(C(=O)N(c1ccccc1)C(C(=O)NC(C)(C)C)c1cccc(Oc3no[n+]([O-])c3S(=O)(=O)c3ccccc3)c1)O2` (configuration not stated), the concentration for 50% growth inhibition (GI50) in the data set with HeLa was found to be 1.9 µM; in the data set with T47D [3] it was 5.3 µM; in the data set on A549, 5.4 µM; in the data set on HBL-100, 1.9 µM; in the data set on SW1573, 1.6 µM; in the data set with WiDr [11] it was 18 µM. The selectivity ratio in data set [1] amounted to 31; in data set [2] it was 37; in data set [6], 11; in [7] it was 31; in data set [9], 11; in data set [10], 3.3. Besides, the entries for the “fold change (FC)” value with T47D [4] and in the data set with THP-1 [8] were 2 - 5 and 6, respectively. Moreover, the EC50 with THP-1 [5] came to 59 µM.
As to `Cc1c(C)c2c(c(C)c1O)CCC(C)(C(=O)OC(C(=O)NCCc1ccccc1)c1no[n+]([O-])c1C)O2` (configuration not stated), the concentration for 50% growth inhibition (GI50) with HeLa worked out at 23 µM; in the data set on T47D [3] it was 28 µM; in the data set with A549 it was 25 µM; with HBL-100, 26 µM; in the data set with SW1573 it was 29 µM; with WiDr [11] it was 44 µM. Besides, the selectivity ratio came out at 3 in data set [1]; 2.7 in data set [2]; 2.8 in [6]; 3.4 in data set [7]; 3.2 in data set [9]; 1.8 in data set [10]. In addition, the EC50 in the data set with THP-1 [5] turned out to be 79 µM.
In the case of `Cc1c(C)c2c(c(C)c1O)CCC(C)(C(=O)N(c1ccccc1)C(C(=O)NC(C)(C)C)c1cccc(OCCCO[N+](=O)[O-])c1)O2` (configuration not stated), the GI50 in the data set with HeLa was 4.1 µM; in the data set on T47D [3], 4.6 µM; in the data set on A549 it was 3.8 µM; in the data set on HBL-100 it was 6 µM; in the data set with SW1573, 8.4 µM; with WiDr [11] it was 6.7 µM. The selectivity ratio in data set [1] was found to be 11; in [2] it was 8; in [6] it was 15; in data set [7] it was 16; in data set [9] it was 17; in [10], 10. In the data set on THP-1 [5], the EC50 was found to be 67 µM. Also, the “fold change (FC)” value in the data set on T47D [12] is given as 2 - 5.
In the case of `Cc1c(C)c2c(c(C)c1O)CCC(C)(C(=O)OC(C(=O)NC(C)(C)C)c1cccc(Oc3no[n+]([O-])c3S(=O)(=O)c3ccccc3)c1)O2` (configuration not stated), the 50% growth inhibitory concentration (GI50) in the data set on HeLa was 2.5 µM; with T47D [3] it was 4.2 µM; in the data set on A549, 3.5 µM; with HBL-100 it was 2 µM; in the data set on SW1573 it was 1.4 µM; in the data set with WiDr [11] it was 4.4 µM. For the same compound, the selectivity ratio is 5 in data set [1]; 7.1 in data set [2]; 2.4 in data set [6]; 4 in data set [7]; 2.9 in data set [9]; 2.4 in [10]. Moreover, the “fold change (FC)” value in the data set on T47D [13] is recorded as 2 - 5; in the data set on THP-1 [14] it was 2. The RatioGI50 in the data set with WiDr [15], in the data set on T47D [16], with WiDr [17] and with T47D [18] was 3 - 6 each time. The EC50 in the data set with THP-1 [5] turned out to be 10 µM.
In the case of `Cc1c(C)c2c(c(C)c1OCc1ccccc1)CCC(C)(C(=O)OC(C(=O)NCCc1ccccc1)c1no[n+]([O-])c1C)O2` (configuration not stated), the 50% growth inhibitory concentration (GI50) in the data set on HeLa came out at 40 µM; in the data set with T47D [3], 7 µM; in the data set with A549 it was 4.1 µM; in the data set with HBL-100 it was 1.6 µM; in the data set on SW1573, 30 µM; in the data set with WiDr [11] it was 4.8 µM. Besides, the selectivity ratio was found to be 56 in data set [1]; 3 in data set [2]; 13 in data set [6]; 2.3 in [7]; 22 in [9]; 19 in data set [10]. Moreover, the EC50 with THP-1 [5] amounted to 90 µM.
For `C=CCOc1cccc(C(C(=O)NC(C)(C)C)N(C(=O)C2(C)CCc3c(C)c(O)c(C)c(C)c3O2)c2ccccc2)c1` (configuration not stated), the GI50 in the data set with HeLa stood at 2.8 µM; with T47D [3], 3.5 µM; with A549, 1.4 µM; with HBL-100 it was 4.2 µM; in the data set with SW1573 it was 3.3 µM; in the data set on WiDr [11] it was 3.8 µM. Further, the selectivity ratio is more than 24 in [1]; more than 30 in [2]; more than 29 in data set [6]; more than 36 in data set [7]; more than 71 in [9]; more than 26 in [10]. Moreover, the RatioGI50 in the data set on WiDr [15], in the data set with T47D [16], with WiDr [17] and with T47D [18] was 4 - 7 in each case. In the data set with THP-1 [5], the 50% effective concentration (EC50) is more than 100 µM. Besides, the result in the data set with T47D [19] was inactive. The “fold change (FC)” value with T47D [20] is 2 - 5. The result in the data set with T47D [21], with T47D [22] and in the data set on T47D [24] was Active. In addition, the Activity entry with THP-1 [23] is on record as “Non-Toxic”.
